23 molecules from patent US9670191B2, “Pyridyl-and pyrimidinyl-substituted pyrrole-, thiophene- and furane-derivatives as kinase inhibitors” (priority 2006, dated 2017) can be followed below.

Where a name gives a salt, the structure may show the parent alone.

Sequence of Cdc7/Dbf4 (O00311 whole entry, looked up, species assumed): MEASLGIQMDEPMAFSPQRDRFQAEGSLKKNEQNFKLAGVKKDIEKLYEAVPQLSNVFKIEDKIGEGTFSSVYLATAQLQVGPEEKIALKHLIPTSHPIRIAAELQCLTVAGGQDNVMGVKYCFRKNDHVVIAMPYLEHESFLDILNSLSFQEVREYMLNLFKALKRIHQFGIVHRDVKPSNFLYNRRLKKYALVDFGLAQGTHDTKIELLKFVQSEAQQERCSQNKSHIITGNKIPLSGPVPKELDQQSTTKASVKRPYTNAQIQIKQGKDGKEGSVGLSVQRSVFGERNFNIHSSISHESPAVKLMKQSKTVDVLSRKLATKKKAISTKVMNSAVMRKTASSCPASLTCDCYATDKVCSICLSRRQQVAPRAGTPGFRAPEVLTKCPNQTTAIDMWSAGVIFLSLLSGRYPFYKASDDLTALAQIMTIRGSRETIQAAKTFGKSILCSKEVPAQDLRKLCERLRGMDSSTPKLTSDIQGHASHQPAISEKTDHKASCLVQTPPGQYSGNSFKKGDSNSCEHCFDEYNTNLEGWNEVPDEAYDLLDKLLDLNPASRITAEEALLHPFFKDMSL
Sequence of Cdc7/Dbf4 (Q9UBU7 whole entry partner, looked up, species assumed): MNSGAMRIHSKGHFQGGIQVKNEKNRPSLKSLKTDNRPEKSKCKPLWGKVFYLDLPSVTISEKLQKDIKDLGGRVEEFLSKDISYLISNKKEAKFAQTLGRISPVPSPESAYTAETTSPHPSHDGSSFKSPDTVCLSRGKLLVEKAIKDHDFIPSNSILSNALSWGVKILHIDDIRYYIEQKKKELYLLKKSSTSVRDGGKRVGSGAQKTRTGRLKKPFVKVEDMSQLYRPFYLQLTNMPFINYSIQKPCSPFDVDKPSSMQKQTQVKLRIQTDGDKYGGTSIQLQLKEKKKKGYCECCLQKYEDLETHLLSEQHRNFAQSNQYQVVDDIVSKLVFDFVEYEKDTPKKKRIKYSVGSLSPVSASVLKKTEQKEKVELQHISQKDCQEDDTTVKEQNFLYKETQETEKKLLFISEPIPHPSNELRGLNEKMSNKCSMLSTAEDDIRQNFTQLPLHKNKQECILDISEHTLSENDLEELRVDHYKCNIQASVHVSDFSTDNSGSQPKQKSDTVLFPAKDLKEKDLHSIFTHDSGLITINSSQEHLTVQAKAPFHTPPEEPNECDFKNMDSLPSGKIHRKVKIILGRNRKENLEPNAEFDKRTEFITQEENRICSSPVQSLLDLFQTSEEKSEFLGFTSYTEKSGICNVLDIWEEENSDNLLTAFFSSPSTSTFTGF

The first assay has as its target Cdc7/Dbf4 (Homo sapiens (Human), UniProt O00311). The assay can be described thus: Inhibition assay of Cdc7/Dbf4 activity (Dowex resin capture, 33P-ATP, MCM2 substrate). It counts as biochemical.
Settings: not given
The procedure: Inhibition Assay of Cdc7 Activity
The inhibiting activity of putative Cdc7 inhibitors and the potency of selected compounds is determined through a method of assay based on the use of Dowex resin capture technology.
The assay consists of the transfer of radioactivity labeled phosphate moiety by the kinase to an acceptor substrate. The resulting 33P-labeled product is separated from unreacted tracer, transferred into a scintillation cocktail and light emitted is measured in a scintillation counter.
The inhibition assay of Cdc7/Dbf4 activity is performed according to the following protocol.
The MCM2 substrate is trans-phosphorylated by the Cdc7/Dbf4 complex in the presence of ATP traced with γ^33-ATP. The reaction is stopped by addition of Dowex resin in the presence of formic acid. Dowex resin particles capture unreacted γ^33-ATP and drag it to the bottom of the well while ^33P phosphorylated MCM2 substrate remains in solution. The supernatant is collected, transferred into Optiplate plates and the extent of substrate phosphorylation is evaluated by β counting.
The inhibition assay of Cdc7/Dbf4 activity was performed in 96 wells plate according to the following protocol.
The solvent for test compounds contained 3% DMSO (final concentration 1%) • 10 μl substrate MCM2 (6 μM final concentration), a mixture of cold ATP (2 μM final concentration) and radioactive ATP (1/5000 molar ratio with cold ATP). • 10 μl enzyme (Cdc7/Dbf4, 2 nM final concentration) that started the reaction. The buffer of the reaction consisted in 50 mM HEPES pH 7.9 containing 15 mM MgCl2, 2 mM DTT, 3 uM NaVO3, 2 mM glycerophosphate and 0.2 mg/ml BSA. • After incubation for 60 minutes at room temperature, the reaction was stopped by adding to each well 150 μl of Dowex resin in the presence of 150 mM formic acid. After another 60 min incubation, 50 μL of suspension were withdrawn and transferred into 96-well OPTIPLATEs containing 150 μl of MicroScint 40 (Packard); after 5-10 minutes shaking the plates were read for 1 min in a Packard TOP-Count radioactivity reader.
Experimental data were analyzed by the computer program Assay Explorer using the four parameter logistic equation: y=bottom+(top−bottom)/(1+10^((log IC50−x)*slope)) where x is the logarithm of the inhibitor concentration, y is the response; y starts at bottom and goes to top with a sigmoid shape.
`NC(=O)c1cc(-c2ccncc2)[nH]c1-c1ccccc1` [Compound A1, 2-Phenyl-5-pyridin-4-yl-1H-pyrrole-3-carboxylic acid amide] gave an IC50 of 1 to 100 nM. `NC(=O)c1cc(-c2ccncc2)[nH]c1-c1ccccc1F` [Compound A2, 2-(2-Fluoro-phenyl)-5-pyridin-4-yl-1H-pyrrole-3-carboxylic acid amide hydrochloride] came in with an IC50 of 1 to 100 nM. Same read-out and setting: with `NC(=O)c1cc(-c2ccncc2)[nH]c1-c1cccc(F)c1` [Compound A3, 2-(3-Fluoro-phenyl)-5-pyridin-4-yl-1H-pyrrole-3-carboxylic acid amide] the figure was 1 to 100 nM. The same measure, in the same setting: with `NC(=O)c1cc(-c2ccncc2)[nH]c1-c1ccc(F)cc1` [Compound A4, 2-(4-Fluoro-phenyl-5-pyridin-4-yl-1H-pyrrole-3-carboxylic acid amide hydrochloride] the figure was 1 to 100 nM. Same read-out and setting: with `NC(=O)c1cc(-c2ccncc2)[nH]c1-c1cccc(Br)c1` [Compound A5, 2-(3-Bromo-phenyl-5-pyridin-4-yl-1H-pyrrole-3-carboxylic acid amide hydrochloride] the figure was 1 to 100 nM. Molecule `NC(=O)c1cc(-c2ccncc2)[nH]c1-c1ccc(Br)cc1` [Compound A6, 2-(4-Bromo-phenyl)-5-pyridin-4-yl-1H-pyrrole-3-carboxylic acid amide hydrochloride] registered an IC50 of 1 to 100 nM.

For the molecule `Cc1cccc(-c2[nH]c(-c3ccncc3)cc2C(N)=O)c1` [Compound A8, 5-Pyridin-4-yl-2-m-tolyl-1H-pyrrole-3-carboxylic acid amide], the IC50 was in the range of 1 to 100 nM. On the same count and under the same terms, with `Cc1ccc(-c2[nH]c(-c3ccncc3)cc2C(N)=O)cc1` [Compound A9, 5-pyridin-4-yl-2-p-tolyl-1H-pyrrole-3-carboxylic acid amide] the figure was 1 to 100 nM; with `COc1ccccc1-c1[nH]c(-c2ccncc2)cc1C(N)=O` [Compound A10, 2-(2-Methoxy-phenyl)-5-pyridin-4-yl-1H-pyrrole-3-carboxylic acid amide hydrochloride], 1 to 100 nM; with `COc1cccc(-c2[nH]c(-c3ccncc3)cc2C(N)=O)c1` [Compound A11, 2-(3-Methoxy-phenyl)-5-pyridin-4-yl-1H-pyrrole-3-carboxylic acid amide], 1 to 100 nM. Same read-out and setting: with `COc1ccc(-c2[nH]c(-c3ccncc3)cc2C(N)=O)cc1` [Compound A12, 2-(4-Methoxy-phenyl)-5-pyridin-4-yl-1H-pyrrole-3-carboxylic acid amide hydrochloride] the figure was 1 to 100 nM; with `NC(=O)c1cc(-c2ccncc2F)[nH]c1-c1ccccc1` [Compound E1, 5-(3-Fluoro-pyridin-4-yl)-2-phenyl-1H-pyrrole-3-carboxylic acid amide], 1 to 100 nM; with `NC(=O)c1cc(-c2ccnc(N)n2)[nH]c1-c1ccccc1` [Compound F1, 5-(2-Amino-pyrimidin-4-yl)-2-phenyl-1H-pyrrole-3-carboxylic acid amide], 1 to 100 nM. The same measure, in the same setting: with `NC(=O)c1cc(-c2ccnc(N)n2)[nH]c1-c1ccsc1` [Compound G1, 5-(2-amino-pyrimidin-4-yl)-2-thiophen-3-yl-1H-pyrrole-3-carboxylic acid amide] the figure was 1 to 100 nM; with `NC(=O)c1cc(-c2ccnc(Nc3ccccc3)n2)[nH]c1-c1ccccc1` [Compound H1, 2-Phenyl-5-(2-phenylamino-pyrimidin-4-yl)-1H-pyrrole-3-carboxylic acid amide], 1 to 100 nM. `CCn1c(-c2ccnc(N)n2)cc(C(N)=O)c1-c1ccccc1` [Compound L1, 5-(2-Amino-pyrimidin-4-yl)-1-ethyl-2-phenyl-1H-pyrrole-3-carboxylic acid amide] registered an IC50 of 1 to 100 nM. Same read-out and setting: with `CC(C)NC(=O)c1cc(-c2ccnc(N)n2)[nH]c1-c1ccccc1` [Compound M2, 5-(2-Amino-pyrimidin-4-yl)-2-phenyl-1H-pyrrole-3-carboxylic acid isopropylamide] the figure was 1 to 100 nM; with `Nc1nccc(-c2cc(C(=O)NCc3ccccc3)c(-c3ccccc3)[nH]2)n1` [Compound M3, 5-(2-Amino-pyrimidin-4-yl)-2-phenyl-1H-pyrrole-3-carboxylic acid benzylamide], 1 to 100 nM.

Staying with this assay, now noted: MCM2 substrate 6 μM, ATP 2 μM, enzyme 2 nM, 60 minutes at room temperature; read-out: IC50 values on Cdc7/Dbf4.
Turning to `Cc1ccccc1-c1[nH]c(-c2ccncc2)cc1C(N)=O` [Compound A7, 5-Pyridin-4-yl-2-o-tolyl-1H-pyrrole-3-carboxylic acid amide], the IC50 was in the range of 1 to 100 nM. Still for that read-out and setting: with `Cc1cccc(-c2[nH]c(-c3ccncc3)cc2C(N)=O)c1C` [Compound A20, 2-(2,3-Dimethyl-phenyl)-5-pyridin-4-yl-1H-pyrrole-3-carboxylic acid amide] the figure was 1 to 100 nM. Same read-out and setting: with `NC(=O)c1cc(-c2ccncc2)[nH]c1-c1ccsc1` [Compound C1, 5-Pyridin-4-yl-2-thiophen-3-yl-1H-pyrrole-3-carboxylic acid amide] the figure was 1 to 100 nM. Same read-out and setting: with `NC(=O)c1cc(-c2ccncc2)[nH]c1-c1ccoc1` [Compound C2, 2-Furan-3-yl-5-pyridin-4-yl-1H-pyrrole-3-carboxylic acid amide] the figure was 1 to 100 nM. For the molecule `Nc1nccc(-c2cc(C(=O)NCC3CCCCC3)c(-c3ccccc3)[nH]2)n1` [Compound M4, 5-(2-Amino-pyrimidin-4-yl)-2-phenyl-1H-pyrrole-3-carboxylic acid cyclohexylmethyl-amide], the IC50 is 1 to 100 nM.
